Entries after “also recorded” stand apart in the source; their conditions may differ.
Tests used:
human Nav1.6 [1] = target: T1, human Nav1.6 (Homo sapiens, UniProt Q9UQD0); experiment: ATX-II activated late (persistent) INa block, automated patch clamp in HEK cells; assay type: cell-based; conditions: for inhibition of and preference for persistent INa (in words): hNav1.6; for Persistent INa Hill slope: hNav1.6 in HEK cells
T1 construct: HEK-293 cell lines stably expressing human Nav1.6 (NP_055006) were used; expressed in transfected cells
T1 sequence (Q9UQD0 whole entry): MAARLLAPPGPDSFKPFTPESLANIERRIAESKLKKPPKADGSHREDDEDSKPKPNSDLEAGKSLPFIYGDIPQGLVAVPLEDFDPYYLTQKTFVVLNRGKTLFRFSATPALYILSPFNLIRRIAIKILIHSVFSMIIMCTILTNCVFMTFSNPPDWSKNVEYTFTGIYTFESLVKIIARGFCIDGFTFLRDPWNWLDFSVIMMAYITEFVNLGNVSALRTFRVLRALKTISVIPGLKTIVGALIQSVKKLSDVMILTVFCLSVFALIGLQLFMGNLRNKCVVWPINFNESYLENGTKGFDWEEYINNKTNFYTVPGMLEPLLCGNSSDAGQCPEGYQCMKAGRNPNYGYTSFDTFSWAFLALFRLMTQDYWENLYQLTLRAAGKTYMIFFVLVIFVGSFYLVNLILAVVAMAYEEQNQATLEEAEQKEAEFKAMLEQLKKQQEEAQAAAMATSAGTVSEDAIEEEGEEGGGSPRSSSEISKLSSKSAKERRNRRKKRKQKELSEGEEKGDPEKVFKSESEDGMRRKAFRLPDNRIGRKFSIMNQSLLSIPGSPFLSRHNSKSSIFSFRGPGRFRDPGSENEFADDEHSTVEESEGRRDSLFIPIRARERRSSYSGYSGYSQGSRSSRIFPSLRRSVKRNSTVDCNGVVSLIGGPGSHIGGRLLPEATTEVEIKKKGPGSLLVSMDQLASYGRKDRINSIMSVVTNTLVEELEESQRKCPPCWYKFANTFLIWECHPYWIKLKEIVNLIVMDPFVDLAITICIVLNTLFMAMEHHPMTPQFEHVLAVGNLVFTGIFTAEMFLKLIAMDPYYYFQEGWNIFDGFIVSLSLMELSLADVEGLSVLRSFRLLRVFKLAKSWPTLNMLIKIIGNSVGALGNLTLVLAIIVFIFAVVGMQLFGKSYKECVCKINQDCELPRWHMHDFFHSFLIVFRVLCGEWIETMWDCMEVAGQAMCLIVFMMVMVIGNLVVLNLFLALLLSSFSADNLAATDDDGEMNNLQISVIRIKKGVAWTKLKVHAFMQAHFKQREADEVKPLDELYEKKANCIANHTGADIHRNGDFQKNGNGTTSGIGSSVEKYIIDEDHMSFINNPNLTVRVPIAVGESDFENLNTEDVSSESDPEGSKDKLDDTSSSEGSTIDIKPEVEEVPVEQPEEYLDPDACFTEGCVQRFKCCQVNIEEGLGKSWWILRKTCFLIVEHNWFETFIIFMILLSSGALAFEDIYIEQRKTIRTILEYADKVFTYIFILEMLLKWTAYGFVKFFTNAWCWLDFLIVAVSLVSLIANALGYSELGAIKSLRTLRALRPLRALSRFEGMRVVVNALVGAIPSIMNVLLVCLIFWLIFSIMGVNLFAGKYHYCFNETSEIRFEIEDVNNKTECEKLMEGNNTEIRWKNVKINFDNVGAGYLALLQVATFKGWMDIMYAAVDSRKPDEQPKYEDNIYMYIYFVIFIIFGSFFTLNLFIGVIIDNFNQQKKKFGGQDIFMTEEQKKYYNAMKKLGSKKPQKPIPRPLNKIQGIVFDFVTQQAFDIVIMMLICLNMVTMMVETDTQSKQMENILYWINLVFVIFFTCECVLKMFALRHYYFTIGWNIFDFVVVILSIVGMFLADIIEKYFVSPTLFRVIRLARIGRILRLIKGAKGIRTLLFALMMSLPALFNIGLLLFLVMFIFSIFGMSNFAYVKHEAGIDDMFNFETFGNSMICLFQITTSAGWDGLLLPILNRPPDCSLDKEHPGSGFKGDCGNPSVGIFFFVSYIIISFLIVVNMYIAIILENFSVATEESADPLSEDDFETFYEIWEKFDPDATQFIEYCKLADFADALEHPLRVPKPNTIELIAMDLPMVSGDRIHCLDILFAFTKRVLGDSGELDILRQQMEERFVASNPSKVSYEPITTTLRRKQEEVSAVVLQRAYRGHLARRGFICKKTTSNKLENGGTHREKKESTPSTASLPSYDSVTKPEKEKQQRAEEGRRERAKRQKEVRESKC

human Nav1.6 [2] = target: T1, human Nav1.6; experiment: Peak INa tonic block (TB), automated patch clamp in HEK cells; assay type: cell-based; conditions: ratio of peak INa (TB) to persistent INa IC50
human Nav1.6 [3] = target: T1, human Nav1.6; experiment: Peak INa use-dependent block (UDB-10 Hz), automated patch clamp in HEK cells; assay type: cell-based; conditions: for activity dependent block of peak INa (in words): hNav1.6; for Peak INa UDB-10 Hz Hill slope: use-dependent block
hNav1.6 = target: T2, hNav1.6 (Homo sapiens, UniProt Q9UQD0); experiment: Peak INa voltage-dependent block (VDB), automated patch clamp in HEK cells; assay type: cell-based
T2 construct: expressed in transfected cells; host or cells: HEK cells
T2 sequence (Q9UQD0 whole entry): as above

[4] = test system: MES-induced seizures in male CD-1 mice; experiment: Maximal electroshock (MES) induced seizure test, Example 3; assay type: in vivo, mouse; conditions: dose response
Experimental: The maximal electroshock (MES) test is a validated model for evaluating anti-seizure potential of compounds. […] The object of these studies was to evaluate the effect of Compound 1 (0.3, 1, 3 and 10 mg/kg p.o. (oral)) to attenuate MES-induced seizures in male CD-1 mice.
(§1) Food and water were available ad libitum.
Dosing solutions were prepared on each experiment day. […] VPA was prepared in saline (Vehicle 1). All solutions were protected from light. All compounds and vehicles were dosed at 10 ml/kg.
The MES test was carried out over two days with half of the mice from each treatment group being tested on each day. Mice were brought to the test room at least one hour before the start of the experiment. […] Mice were randomly assigned into one of the six treatment groups.
Animals were p.o. (oral) administered Compound 1 or 35% HPBCD (Vehicle 2) 30 minutes prior to the MES test or i.p. administered VPA or saline (Vehicle 1) 30 minutes prior to the MES test.
A Grass S88× (Grass Technologies of Astro-Med, Inc., West Warwick, RI) Stimulus Isolation Unit (A385, WPI Inc., USA) was set to deliver a 50 mA square-wave stimulus, with a 0.8 second duration, a pulse width of 10 msec, and a frequency of 50 Hz. […] Each mouse was observed continuously by individuals blinded to treatment conditions and results were recorded. […]
From these fitted curves, ED50 and EC50 values were calculated.

[5] = test system: spontaneous locomotor activity in male CD-1 mice; experiment: Spontaneous locomotor activity (sLMA) test, Example 4; conditions: mouse, in vivo
Experimental: The Spontaneous Locomotor Activity (sLMA) test is a validated model for evaluating the potential motor side effects of compounds. The objective of this study was to evaluate the effect of Compound 1 (3, 5.6, 10 and 20 […], p.o.) on spontaneous locomotor activity (sLMA) in male CD-1 mice at 30 minutes post-dose.
as §1
Dosing solutions were prepared on each experiment day. […] All solutions were protected from light. Samples from dosing solutions were stored at 4° C.
The sLMA test was carried out over two days. Half of the mice from each treatment group was tested on each day.
Animals were p.o. administered Compound 1 or 35% HPBCD (vehicle) 30 minutes prior to the sLMA test.
All mice were anesthetized with CO2. […] The supernatant plasma was pipetted into Eppendorf tubes.

[6] = test system: MES-induced tonic hindlimb extension in male CD-1 mice; experiment: MES acute seizure model, tonic hindlimb extension, Example 9; assay type: in vivo, mouse; conditions: for ED50: Mus musculus, read-out: ED50 value, protection from MES-induced tonic hindlimb extension
Experimental: The maximal electroshock (MES) acute seizure model of generalized seizures is validated for evaluating the anticonvulsant potential of compounds. […] The objective of this study was to evaluate the effect of Compound 1 on maximal electroshock induced seizure in male CD-1 mice.
Male CD-1 mice (Vital River, Beijing, China) approximately 6 weeks old were obtained for the study. Body weights were between 20.5 grams and 38.5 grams at the time the experiments were carried out. […] Food and water were available ad libitum.
Treatment was conducted using Compound 1 and 35% 2-hydroxypropyl-β-cyclodextrin (35% HPBCD, used as a negative control). Compound 1 stock solution was prepared fresh each experiment day in 35% HPBCD and protected from light. The stock solution was diluted with vehicle for lower doses.
Mice were brought to the test room at least one hour before the start of the experiment. Mice were administered valproate (VPA; 400 mg/kg, intraperitoneally); or vehicle (35% HPBCD, 10 mL/kg, intraperitoneally); or Compound 1 (0.3 mg/kg, 1 mg/kg, 3 mg/kg or 10 mg/kg, orally) 30 minutes prior to the MES test.
The electroshock apparatus was set to deliver a 50 mA square-wave stimulus, with a 0.8 second duration, a pulse width of 10 milliseconds, and a frequency of 50 Hz. A pair of custom stainless-steel electrodes were soaked in 0.2% agar, and then the subject received bilateral transauricular stimulation through ear-clip electrodes. During the stimulation, mice were manually restrained then released immediately into an observation cage where they were monitored continuously for 60 seconds by an observer blinded to treatment group.
Mice were anesthetized with CO2 and terminal plasma and brain tissue samples were collected. […] The supernatant plasma was pipetted into Eppendorf tubes.
All statistical analyses were conducted using GraphPad Prism 9.3. Means were combined and standard error was calculated using the Satterthwaite Approximation to combine standard deviations. […] ED50 and EC50 values were calculated from these fit curves.

[7] = test system: psychomotor seizures induced by 6-Hz electrical stimulation in CD-1 mice; experiment: 6-Hz psychomotor seizure model (32 and 44 mA); assay type: in vivo, mouse; conditions: 600 mg/kg intraperitoneally
Source text: The 6-Hz test is a validated model of focal seizures for evaluating the anti-seizure potential of compounds. The 6-Hz seizure model can be performed at different stimulation intensities (32 or 44 mA), with the higher intensity (44 mA) used as a model of pharmacoresistant seizures. The positive control valproate is an approved anti-seizure medicine (ASM).
This study evaluated the efficacy of Compound 1 in attenuating psychomotor seizures induced by 6-Hz electrical stimulation at two different stimulation intensities (32 and 44 mA) in wild-type CD-1 mice. Psychomotor seizures are defined as the expression of at least one of the following behaviors: stun/immobility, forelimb clonus, straub tail or lateral head movement within 30 seconds of the stimulus. Protection is defined as a complete absence of the above behaviors within 30 seconds of the stimulus. Doses of Compound 1 used were 1 mg/kg, 3 mg/kg and 6 mg/kg administered orally. Valproate (600 mg/kg, administered intraperitoneally) was used as a positive control.
Male CD-1 mice (Charles River Laboratories; St. Constant, Quebec, CAN) were used for the study. Body weights at the time the experiment was carried out were 30-40 grams. The mice were group-housed in polycarbonate cages according to standard operating procedures. Animals were maintained on a 12-hour light/12 hour dark cycle, with all experimental activities occurring during the light phase. Food and water were available ad libitum. Mice acclimated to the test facility for at least 72 hours prior to testing.
Treatment was conducted using Compound 1 and 35% 2-hydroxypropyl-β-cyclodextrin (35% HPBCD, used as a negative control). Compound 1 stock solution was prepared fresh each experiment day in 35% HPBCD. […] Valproate was prepared fresh each experiment day in a vehicle of saline and dosed at 10 mL/kg.
Mice were administered vehicle (35% HPBCD), a single dose of Compound 1 (1 mg/kg, 3 mg/kg or 6 mg/kg) or valproate (600 mg/kg). Vehicle and Compound 1 were administered via oral gavage 30 minutes prior to […]. Valproate was administered as an intraperitoneal injection 60 minutes prior to the electrical stimulus.
Immediately prior to conducting the 6-Hz seizure test, a brief neurological assessment was performed. Each animal was visually assessed and received a score from 0 to 3 according to the following scoring system: neurological score of 0 corresponds to a normal status; neurological score of 1 corresponds to a modest decrease in spontaneous activity; neurological score of 2 corresponds to a marked decrease in spontaneous activity; and neurological score of 3 corresponds to loss of righting reflex.
Corneal electrodes moistened with saline (ECT unit 57800; Ugo Basile) were used to deliver the electrical stimulus (6-Hz, 0.2 millisecond pulse width, 3 seconds duration). The current delivered was either 32 mA or 44 mA. Immediately after the electrical stimulus, each mouse was monitored continuously for 30 seconds by an observer blinded to the treatment group. […] Mice were scored for the presence or absence of each seizure behavior, with a maximum total score of 4. […] At the end of the 6-Hz seizure test, plasma and brain samples were collected.
Mice were anesthetized with isoflurane, whole blood was collected via cardiac puncture and brains were harvested. […] Plasma and brain samples were stored at −80° C. and analyzed to determine levels of Compound 1. […]

[8] = 400 mg/kg intraperitoneally, listed as valproate

| Compound | Persistent INa Hill slope (human Nav1.6 [1]) | Peak INa TB Ratio to Pers. INa (human Nav1.6 [2]) | Peak INa UDB-10 Hz Ratio to Pers. INa (human Nav1.6 [3]) | Peak INa UDB-10 Hz Hill slope (human Nav1.6 [3]) | Peak INa VDB Hill slope (hNav1.6) | Peak INa VDB Ratio to Pers. INa (hNav1.6) | ED50 ([6]; male CD-1 mice) | further results |
| --- | --- | --- | --- | --- | --- | --- | --- | --- |
| NC(=O)N1c2ccccc2C=Cc2ccccc21 [Carbamazepine, carbamazepine] | (1.1) | 30 | 18 | (0.9) | (0.9) | 0.6 | 3.8 to 5.4 mg/kg | persistent INa preference to TB (human Nav1.6 [1]): 30 ×; inhibition of and preference for persistent INa (in words) (human Nav1.6 [1]): lower potency and preference for persistent INa; UDB preference to TB (human Nav1.6 [3]): no UDB observed; activity dependent block of peak INa (in words) (human Nav1.6 [3]): minimal activity dependent block of peak INa; protection against MES-induced seizures (in words) [4]: dose-dependent protection from MES-induced seizures; sLMA dose response (in words) [5]: dose-dependent reductions in sLMA |
| NC(=O)O[C@@H](Cn1ncnn1)c1ccccc1Cl [Cenobamate, cenobamate] | (1.1) | 24 | 11 | (0.7) | (0.9) | 0.9 | 3.8 to 5.4 mg/kg | persistent INa preference to TB (human Nav1.6 [1]): 24 ×; UDB preference to TB (human Nav1.6 [3]): 2.3 ×; ED50 value, protection from MES-induced tonic hindlimb extension ([6]; male CD-1 mice): 4.1 mg/kg |
| COC[C@@H](NC(C)=O)C(=O)NCc1ccccc1 [Lacosamide, lacosamide] | (0.9) | – | 0.8 | (1.3) | (1.2) | 0.3 | – | – |
| Nc1nnc(-c2cccc(Cl)c2Cl)c(N)n1 [Lamotrigine, lamotrigine] | (1.0) | – | – | (1.0) | (0.9) | – | 3.8 to 5.4 mg/kg | inhibition of and preference for persistent INa (in words) (human Nav1.6 [1]): lower potency and preference for persistent INa; activity dependent block of peak INa (in words) (human Nav1.6 [3]): minimal activity dependent block of peak INa; protection against MES-induced seizures (in words) [4]: dose-dependent protection from MES-induced seizures; sLMA dose response (in words) [5]: dose-dependent reductions in sLMA |
| NC(=O)N1c2ccccc2CC(=O)c2ccccc21 [Oxcarbazepine, oxcarbazepine] | (1.0) | 8 | – | – | (1.1) | 0.3 | – | – |
| O=C1NC(=O)C(c2ccccc2)(c2ccccc2)N1 [Phenytoin, phenytoin] | (0.8) | – | 15 | (0.6) | (1.0) | 0.8 | – | – |
| CCCC(CCC)C(=O)O [Valproic acid] | – | – | – | – | – | – | – | sedation before MES test (in words) ([6]; 400 mg/kg intraperitoneally, listed as Valproate): mild to moderate sedation; protection against MES-induced hindlimb extension (in words) [6, 8]: all mice n=24 were seizure-free; also recorded: protected mice from MES-induced tonic hindlimb extension; sedation before MES test (in words) [6, 8]: nearly all valproate-treated mice showed mild to moderate sedation; average neurological score [7]: 1.2; neurological scores / spontaneous activity ([7]; listed as valproate): modest to marked decrease in spontaneous activity |
| Cc1cc(N2CCc3cc(F)ccc3C2)cc(C)c1NC(=O)CC(C)(C)C [XEN1101] | – | – | – | – | – | – | 3.8 to 5.4 mg/kg | – |

Reference: patent US20250288570A1, “TREATMENT OF NEUROLOGICAL DISORDERS” (Praxis Precision Medicines, Inc., priority 2022, published 2025)
